According to article PMC4627731, “Leishmanicidal Effect of Synthetic trans-Resveratrol Analogs” (PLoS ONE, 2015):
“And” between values parts separate entries of the source, which are not always exact repeats. Equal entries are not always repeated. Where two headings read alike, the source gives them in different places.

Experiments:
[1] = tested on: Leishmania amazonensis promastigotes; assay: Anti-promastigote activity (XTT); type: cell-based; details: read-out: IC50 Promastigotes
Description: L. amazonensis (WHOM/BR/75/Josefa) promastigotes were cultured at 26°C in Schneider insect medium (Sigma), 10% fetal calf serum (Gibco-BRL, MD, US.) and 20 μg/mL of gentamycin (Schering-Plough, Rio de Janeiro, Brazil).
The leishmanicidal properties of the analogs were evaluated by measuring promastigotes’ mitochondrial activity using the XTT method with 2,3-bis-[2-methoxy-4-nitro-5-sulphophenyl]-2H-tetrazolium-5-carboxanilida, Sigma) as described previously. […] Sodium azide (10 μM) was used as a control, and the reaction product was read at 450 nm.

[2] = tested on: Leishmania amazonensis promastigotes; assay: Annexin V binding assay; type: cell-based; details: 48 h; piceatannol 100 μM, miltefosine 30 μM
Description: Double staining for annexin V-fluorescein isothiocyanate (FITC) and PI was performed with the Annexin-V apoptosis detection kit (Molecular Probes). […] They were then washed twice in cold annexin V-buffer and centrifuged at 2760 x g for 10 min. Pellets were resuspended in 20 μL of annexin V FITC, and after 15 min of incubation in the dark, 480 μL of annexin V-buffer was added according to the manufacturer instructions. Annexin V-FITC labeling was recorded on a BD FACScalibur (Becton and Dickson) and analyzed using CellQuest software.

[3] = tested on: L. amazonensis intracellular amastigotes; assay: Anti-amastigote activity in infected macrophages; type: cell-based, Leishmania amazonensis; details: for IC50: L. amazonensis in murine peritoneal macrophages, 24 h treatment; for SI (selectivity index; therapeutic index): ratio of CC50 on murine peritoneal macrophages to IC50 on L. amazonensis intracellular amastigotes
Description: Mice peritoneal macrophages obtained after stimulation with thioglycolate for 3 days were harvested in RPMI 1640 medium (LGC Biotecnologia, São Paulo, Brazil), 20 μg/mL of gentamycin and were plated onto 13 mm^2 coverslips inside 24-well plates for adherence for 2 h at 37°C, 5% CO2. Non-adherent cells were removed, and the macrophages were incubated overnight in RPMI supplemented with 10% FCS, as described above. Adhered macrophages were infected with L. amazonensis promastigotes (stationary growth phase) at a 10:1 parasite/macrophage ratio and incubated for 1 h at 34°C, 5% CO2. Free parasites were washed out with 0.01 M phosphate buffered saline (PBS), and the cultures maintained for 24 h at 37°C, 5% CO2. Infected macrophage cultures were treated with different concentrations of the analogs for an additional 24 h at 37°C, 5% CO2. Monolayers were then washed with PBS at 37°C, fixed in methanol, and stained with Giemsa. The number of amastigotes and the percentage of infected macrophages were determined by counting at least 200 cells in duplicate cultures. Endocytic indices were obtained by multiplying the percentage of infected macrophages by the mean number of amastigotes per infected macrophage. The results were expressed as the percentage of surviving macrophages based on endocytic indices of treated and untreated macrophages as reported previously.
The selectivity index was calculated as the ratio of murine peritoneal macrophages CC50 by L. amazonensis intracellular amastigotes IC50.

[4] = tested on: murine peritoneal macrophages; assay: Nitric oxide production by macrophages (Griess); type: cell-based, mouse
Description: Thioglycolate-stimulated peritoneal macrophages were obtained as described above (10^6 cells/well in 24-well plate) and were activated with 1 μg/ml LPS (Sigma-Aldrich) or left untreated. […] The nitrite concentrations in the culture supernatants were determined using the Griess method. The reaction was read at 540 nm, and the concentration of NO2 ^- determined using a standard curve of sodium nitrite. The results are expressed as micromolar concentrations of nitrite.

[5] = Nitric oxide-trapping capacity, cell-free SNAP system; details: 1 mM SNAP, 6 h, rutin 1 mM, pterostilbene 33.2 μM, piceatannol 45 μM, polydatin 29 μM, oxyresveratrol 30.5 μM
Description: A cell-free system with an NO donor was used to test the capacity of resveratrol analogs to trap NO. SNAP (s-nitroso n-acetyl DL-penicillamine, Sigma) liberates nitric oxide in solution, which is then transformed to nitrite in the medium. The addition of a NO scavenger to the SNAP solution results in nitrite decay in the supernatant. […] One milimolar rutin (Sigma), a known NO scavenger, was used as a positive control for this assay. After 6 h of incubation, the nitrite concentration was determined using the Griess method. The results are expressed as the μM concentration of nitrite calculated in comparison with the sodium nitrite standard curve.

[6] = tested on: murine peritoneal macrophages; assay: Detection of reactive oxygen species (DHR 123); type: cell-based, mouse; details: compounds at amastigote IC50
Description: Mice peritoneal macrophages were adhered to 96-well opaque culture plates and then infected or not with L. amazonensis promastigotes. […] The cells were then stained with 50 μM dihydrorhodamine 123 (DHR 123, Life Technologies), and ROS was measured immediately using 500/526 nm excitation/emission wavelengths.

[7] = tested on: Leishmania amazonensis promastigotes; assay: Cell cycle analysis (PI, flow cytometry); type: cell-based; details: 48 h; for Effect on the cell cycle of the parasite: at promastigote IC50; for % cells in different stages of the cell cycle: G0/G1 / % cells in different stages of the cell cycle: G2/M / % cells in different stages of the cell cycle: S / % cells in different stages of the cell cycle: Sub-G0 / % cells: Hyperploidies: pterostilbene 17.7 μM, piceatannol 65 μM, polydatin 95.4 μM, oxyresveratrol 65 μM, mean ± SEM
Description: The cells were washed with PBS and fixed in 70% (v/v) ice-cold methanol/PBS for at least 1 h at 4°C. The fixed cells were washed once with PBS and then incubated in PBS supplemented with 10 μg/mL propidium iodide (PI) and 20 μg/mL RNAse at 37°C, 45 min, as reported. For each sample, 10000 events were collected on a BD FACScalibur (Becton and Dickson) and analyzed using CellQuest software.

[8] = Cytotoxicity for host macrophages (XTT); type: cell-based; details: mouse, murine peritoneal macrophages
Description: After 3 h of incubation, the reaction product was read at 450 nm. The results are expressed in percentage of viable cells compared to untreated control.

[9] = tested on: Leishmania amazonensis promastigotes; assay: Mitochondrial membrane potential (JC-1); type: cell-based; details: 65 μM, 48 h, JC-1 red/green ratio
Description: Change in ΔΨm was measured using the mitochondria staining kit (Sigma-Aldrich).

[10] = tested on: promastigotes of L. donovani; details: cited from earlier work
[11] = tested on: promastigotes of L. infantum; details: cited from earlier work
[12] = tested on: promastigotes of L. major; details: cited from earlier work
[13] = tested on: amastigotes of L. donovani in RAW macrophages; details: cited from earlier work
[14] = tested on: promastigote form of L. infantum; design: method as in PMID 23103597; details: cited from earlier work
[15] = tested on: amastigote form of L. infantum; design: method as in PMID 23103597; details: cited from earlier work
[16] = Leishmania amazonensis, Peritoneal macrophage
[17] = macrophages infected with L. amazonensis, 29 μM polydatin, 30.5 μM oxyresveratrol
[18] = L. amazonensis infected macrophages
[19] = infected and PMA-stimulated macrophages
[20] = uninfected macrophages stimulated with 1 μg/mL PMA
[21] = Leishmania amazonensis, 48 h, L. amazonensis promastigotes, 48 h treatment, XTT
[22] = uninfected macrophages stimulated with LPS, 33.2 μM pterostilbene, 45 μM piceatannol
[23] = L. amazonensis promastigotes, 48 h treatment, XTT
[24] = uninfected macrophages not stimulated, 33.2 μM pterostilbene, 29 μM polydatin

Row | Compound | IC50 [3, 16] | SI (selectivity index; therapeutic index) [3] | Decrease of NO levels (NO scavenging) [5] | Reduction of ROS levels [6, 18] | Reduction of ROS levels [6, 19] | Reduction of ROS levels [6, 20] | Reduction of ROS levels ([6]; uninfected macrophages) | Effect on the cell cycle of the parasite [7] | % cells in different stages of the cell cycle: G0/G1 [7] | % cells in different stages of the cell cycle: G2/M [7] | % cells in different stages of the cell cycle: S [7] | % cells in different stages of the cell cycle: Sub-G0 [7] | % cells: Hyperploidies [7] | further results
1 | C[C@@H]1[C@H](O)[C@@H](C)/C=C/C=C/C=C/C=C/C=C/C=C/C=C/[C@H](O[C@@H]2O[C@H](C)[C@@H](O)[C@H](N)[C@@H]2O)C[C@@H]2O[C@](O)(C[C@@H](O)C[C@@H](O)[C@H](O)CC[C@@H](O)C[C@@H](O)CC(=O)O[C@H]1C)C[C@H](O)[C@H]2C(=O)O [Amphotericin B, reference compound] | – | – | – | – | – | – | – | – | – | – | – | – | – | IC50 ([1]; Leishmania amazonensis, 48 h): 0.1 µM
2 | CCCCCCCCCCCCCCCCOP(=O)([O-])OCC[N+](C)(C)C [Miltefosine, reference compound] | – | – | – | – | – | – | – | – | – | – | – | – | – | Increase of annexin-V positive promastigotes in relation to untreated control [2]: 13.2 fold
3 | Oc1cc(O)cc(/C=C/c2ccc(O)cc2O)c1 [Oxyresveratrol, trans-2,3′,4,5′-tetrahydroxystilbene] | 30.5 µM | 4.2 | did not reduce the levels of NO | 4.6 fold | 4.7 fold | 4.8 fold | 3.6 fold | did not alter the cell cycle | 34.380 ± 2.300% | 21.073 ± 2.386% | 9.570 ± 0.444% | 10.413 ± 3.895% | 24.862 ± 2.500% | IC50 ([1]; Leishmania amazonensis, 48 h): 65 µM; Decrease of NO production [4, 17]: 2.0 fold
4 | Oc1cc(O)cc(/C=C/c2ccc(O)c(O)c2)c1 [Piceatannol, trans-3,4,3',5'-tetrahydroxystilbene] | 45 µM | >8.9 | did not reduce the levels of NO | 5.8 fold | 6.6 fold | 4.3 fold | 3.4 fold | – | 21.890 ± 0.840 % | 14.273 ± 0.966% | 8.167 ± 0.522% | 30.990 ± 1.544 % | 24.947 ± 0.801% | IC50 [1, 21]: 65 µM; CC50 at 24 h [8]: > 400 µM; Decrease of NO production [4, 22]: 5.0 fold; Decrease of cells in G0-G1 phase ([7]; 65 μM): 1.7 fold; Increase of cells in Sub-G0 phase ([7]; 65 μM): 5 fold; Reduction in the mitochondrial membrane potential (ΔΨm) [9]: 2.8 fold; Increase of annexin-V positive promastigotes in relation to untreated control [2]: 2.5 fold; IC50 [10]: 17.2 µM; IC50 promastigotes of L. donovani [10]: 4.2 µg/mL; IC50 [11]: 16 µM; IC50 promastigotes of L. infantum [11]: 3.9 µg/mL; IC50 [12]: 23.3 µM; IC50 promastigotes of L. major [12]: 5.7 µg/mL; IC50 [13]: 30.3 µM; IC50 amastigotes of L. donovani in RAW macrophages [13]: 7.4 µg/mL
5 | OC[C@H]1O[C@@H](Oc2cc(O)cc(/C=C/c3ccc(O)cc3)c2)[C@H](O)[C@@H](O)[C@@H]1O [Polydatin, resveratrol-3-O-b-mono-D-glucoside] | 29 µM | 5.2 | did not reduce the levels of NO | 2.1 fold | 2.2 fold | 2.0 fold | 1.8 fold | did not alter the cell cycle | 32.040 ± 2.699% | 20.090 ± 2.661% | 8.698 ± 0.946% | 13.250 ± 4.747% | 26.233 ± 1.273% | IC50 [1, 23]: 95.5 µM; IC50 [1, 21]: 95 µM; Decrease of NO production [4, 17]: 6.1 fold; Decrease of NO production [4, 24]: 2.8 fold
6 | C[C@@H]1O[C@@H](OC[C@H]2O[C@@H](Oc3c(-c4ccc(O)c(O)c4)oc4cc(O)cc(O)c4c3=O)[C@H](O)[C@@H](O)[C@@H]2O)[C@H](O)[C@H](O)[C@H]1O [rutin, reference compound] | – | – | 72% | – | – | – | – | – | – | – | – | – | – | –
7 | trans-3,5-dimethoxy-4-hydroxystilbene [Pterostilbene] | – | – | 22% | 1.6 fold | 1.6 fold | 2.0 fold | – | did not alter the cell cycle | 42.380 ± 1.006% | 24.713 ± 1.331% | 7.823 ± 0.915% | 4.423 ± 0.216% | 20.873 ± 0.309% | IC50 ([1]; L. amazonensis promastigotes, 48 h treatment, XTT, listed as pterostilbene): 18 µM; IC50 [1, 23]: 17.7 µM; IC50 [3]: 33.2 µM; Decrease of NO production [4, 24]: 3.8 fold; Decrease of NO production [4, 22]: 5.3 fold; LD50 promastigote form of L. infantum [14]: 7.6 μg/mL and 29.6 μM; LD50 amastigote form of L. infantum [15]: 10.3 μg/mL and 40.2 μM
